Source: article PMC3410885, “6-Arylpyrido[2,3-d]pyrimidines as Novel ATP-Competitive Inhibitors of Bacterial D-Alanine:D-Alanine Ligase” (PLoS ONE, 2012)
≈ marks a conversion by molar mass, not a printed value. Read-outs that look alike come from different tables or passages of the source.

How the values were obtained:
E. coli DdlB [1] = target: T1, E. coli DdlB (Escherichia coli, UniProt P07862); test: Colorimetric malachite green inhibition assay of DdlB; format: biochemical; conditions: for IC50: malachite green assay, 700 μM D-Ala, 500 μM ATP, 37°C, 20 min, read-out: inhibitory activity on DdlB: IC50
T1 construct: polyhistidine (His) tag (N); made in house; host or cells: E. coli BL21(λDE3), vector pQE-30 UA (Qiagen)
Protocol: All of the synthesized 6-arylpyrido[2,3-d]pyrimidines 11–36 were assayed for in vitro inhibitory activity on E. coli DdlB by detecting orthophosphate generated during the enzymatic reaction using a Malachite green assay.
Inhibition of DdlB was measured at different inhibitor and ATP concentrations in order to determine Ki values and the mode-of-action of both compounds.
The target compounds were tested for their ability to inhibit the D-Ala-adding activity of DdlB ligase with the colorimetric malachite green method in which orthophosphate generated during the reaction is measured. Each compound was tested in duplicate at 100, 250 or 500 μM in a mixture, final volume 50 μL, containing 50 mM Hepes (pH 8.0), 5 mM MgCl2, 10 mM (NH4)2SO4, 10 mM KCl, 700 μM D-Ala, 500 μM ATP, purified His-tagged DdlB (diluted in 50 mM Hepes (pH 7.2) and 1 mM DTT) and the test compound dissolved in DMSO. The final concentration of DMSO was 5% (v/v). The reaction mixture was incubated at 37°C for 20 min, then quenched with 100 μL of Biomol reagent and absorbance at 650 nm was measured after 5 min. To exclude possible promiscuous inhibitors, all compounds were tested in the presence of Triton-114 (0.005%). Residual activities were calculated relative to control assays without the compounds and with DMSO.

DdlB = target: T2, DdlB (Escherichia coli, UniProt P07862); test: Surface plasmon resonance binding to immobilised DdlB; conditions: steady-state affinity model; 25°C; 50 mM Hepes, 150 mM NaCl, 5% DMSO; read-out: KD (SPR)
T2 construct: polyhistidine (His) tag (N); made in house; host or cells: E. coli BL21(λDE3), vector pQE-30 UA (Qiagen)
Protocol: The binding of the compounds 11, 13, 14, 24, 27, 33, and 35 to the target enzyme was confirmed using surface plasmon resonance (SPR) (Figure 10). Experiments were performed at conditions that enable long term stability of the enzyme. […] The enzyme was covalently attached to the surface of a sensor chip CM5 and compounds were titrated over the surface. The binding of all the compounds was characterised by fast association and dissociation rates. Equilibrium affinity constants, estimated from the steady-state binding levels are in agreement with enzymatic studies and ITC. In addition, the binding of other compounds was tested but insufficient solubility at higher concentrations of analytes in the running buffer precluded analysis.
Figure 10 SPR analysis of compounds binding to DdlB. Different concentrations of compounds were tested for the binding (left panels in all cases). The binding curves (right panels) were generated by ploting steady-state response levels, i.e. at the end of the association phase, vs concentration of the injected compound. For each compound 3–5 independent titrations were performed.
The binding constants were obtained by using a Biacore T100 (Biacore, GE Healthcare, USA). […] Two 1 min injections of 50 μg/ml DdlB diluted in 10 mM Na-acetate, pH 4.0 were applied on the second flow cell. The first flow cell was left unmodified and served as a control for non-specific binding of tested compounds. The remaining active groups on the surface of both flow cells were deactivated with a 7-min injection of ethanolamine. The level of immobilized enzyme was around 10000 response units.
Each analyte was titrated, with 3 or 4 repetitions, using different concentrations according to their solubility in running buffer (50 mM Hepes, 150 mM NaCl, 5% DMSO, pH 7.4), usually from 0,781 μM to 500 μM. One concentration was repeated at the end of the assay in each dilution series, in order to check the surface stability and repeatability. The association lasted 60 seconds at a flow-rate 30 μl/min. No regeneration was needed. All experiments were performed at 25°C. Sensorgrams were double referenced by subtracting the signal obtained in the empty flow cell and the injection of the buffer. The steady-state response levels were fitted using the Steady State Affinity model in Biacore T100 Evaluation software.

[2] = test system: E. coli strains (1411, AB734, SM1411, ES100); test: Antibacterial activity stated for the E. coli strains together; format: cell-based; conditions: for MIC: Escherichia coli, read-out: MICs against all strains; for antibacterial activity (in words): efflux-deficient, permeabilised cells
Protocol: (§1) Selected DdlB inhibitors were tested for their antibacterial activity against two E. coli strains E. coli 1411 and E. coli AB734 (Table 2). […] Additionally, growth inhibition of efflux pump-deficient strains SM1411 (acrAB deficient derivative of 1411) and ES100 (tolC deficient derivative of AB734) was measured, and MICs were repeated for each strain in the presence of polymyxin B nonapeptide (PMBN) to assess the impact of outer-membrane permeability on antimicrobial activity.
(§2) Minimum inhibitory concentrations (MICs) were determined by broth microdilution against E. coli 1411, SM1411 (acrAB deficient derivative of 1411), AB734 and ES100 (tolC deficient derivative of AB734) according to CLSI guidelines. MICs were repeated for each strain in the presence of polymyxin B nonapeptide (4 μg/ml) to assess the impact of outer-membrane permeability on antimicrobial activity.

E. coli DdlB [3] = target: T1, E. coli DdlB; test: Isothermal titration calorimetry of binding to DdlB; conditions: ITC, 37°C
Protocol: Two of the compounds, 14 and 33, were also tested by ITC to obtain thermodynamic parameters of the binding into DdlB active site. Heat changes upon binding of the ligand on the E. coli DdlB were measured directly, corrected for the heats of dilution, and the model function was fitted to the experimental data points (see the Experimental section).
The value of critical parameter for obtaining highly reliable thermodynamic data ( [drawing 10] ) was not optimal due to low inhibitors solubility and quite low binding constants. Nevertheless, the conclusions below can be drawn. Experiments for the two compounds result in similar binding constants (K b≈10^5 M^−1) (Table 1), but the driving forces for the binding differ (Figure 11). The binding of compound 14 to DdlB results from favourable enthalpy and entropy contributions. […] But still, compensation of the opposing effects at 33 results in similar [drawing 11] (and binding constant) as at 14, although there are less specific interactions between 33 and the protein as at 14.
The heat changes upon binding were measured using a VP-ITC microcalorimeter from MicroCal, LLC (Northampton, MA, USA). Purified DdlB stock solution in 20% glycerol was dialysed for 40 hours at 4°C (50 mM Hepes, pH = 8.0, 10 mM KCl, 10 mM (NH4)2SO4, 5 mM MgCl2, and 0.01% Triton X-114) prior to titration. The ligand solutions were prepared by adding a stock solution of 14 or 33 in DMSO to the dialysis buffer to obtain final 50 μM solution of the DdlB inhibitor in 5% DMSO. Successive aliquots (11–31 μl) of the degassed ligand solution were injected at 5–8 min intervals by a motor driven syringe (300 μl) into the degassed DdlB solution (approximately 2 μM, 5% DMSO) in the calorimeter cell (V = 1.386 ml) with constant stirring (300 rpm) at 37°C. At the end of experiment the final ratio of ligand:enzyme in the titration cell was about 6∶1. The titration data was further corrected for the heat changes observed in the control titration of ligand solution into the dialysis buffer, 5% DMSO, alone. The experimental data was analysed using the Origin 7.0 software provided by MicroCal and fitted by a home written program, based on the non-linear Levenberg–Marquardt χ^2 regression procedure, assuming a single binding site model (two parameter fit): [drawing 12] [drawing 13] where P, L, and PL represent DdlB, ligand, and DdlB-ligand complex, ΔH and [drawing 14] are the measured enthalpy upon aliquot addition and the standard enthalpy change of the binding reaction, [drawing 15] and [drawing 16] represent the total number of moles of ligand and DdlB-ligand complex in the titration cell, r is the bound ligand to total protein concentration,[P]tot, ratio and K b is the binding constant. A detailed explanation of the applied model equation is given in the Information S2.

E. coli 1411 = test: MIC by broth microdilution, E. coli 1411; format: cell-based; conditions: for MIC: Escherichia coli, 1411, read-out: MIC 1411; for MIC 1411 +PMBN: with polymyxin B nonapeptide (4 μg/ml)
Protocol: as §1, §2

[4] = test system: ES100 (tolC deficient derivative of AB734); test: MIC by broth microdilution, ES100; format: cell-based, E. coli; conditions: for MIC: Escherichia coli, read-out: MIC ES100 (tolC); for MIC ES100 +PMBN: with polymyxin B nonapeptide (4 μg/ml)
Protocol: as §1, §2

[5] = test system: SM1411 (acrAB deficient derivative of 1411); test: MIC by broth microdilution, SM1411; format: cell-based, E. coli; conditions: for MIC: Escherichia coli, read-out: MIC SM1411 (acrAB); for MIC SM1411 +PMBN: with polymyxin B nonapeptide (4 μg/ml)
Protocol: as §1, §2

E. coli AB734 = test: MIC by broth microdilution, E. coli AB734; format: cell-based; conditions: for MIC: Escherichia coli; for MIC AB734 +PMBN: with polymyxin B nonapeptide (4 μg/ml)
Protocol: as §1, §2

[6] = calculated from the fitted parameters

SMILES | IC50 (E. coli DdlB [1]) [µM] | melting point [°C] | Kd (DdlB) [µM] | MIC [2] [µg/mL] | MIC (E. coli 1411) [µg/mL] | MIC 1411 +PMBN (E. coli 1411) [µg/mL] | MIC [4] [µg/mL] | MIC ES100 +PMBN [4] | antibacterial activity (in words) [2] | MIC [5] [µg/mL] | MIC SM1411 +PMBN [5] [µg/mL] | MIC (E. coli AB734; AB734, read-out: MIC AB734) [µg/mL] | MIC AB734 +PMBN (E. coli AB734) [µg/mL] | further results
Nc1ncc2cc(-c3ccccc3)c(N)nc2n1 [Compound 11, 6-phenylpyrido[2,3-d]pyrimidine-2,7-diamine] | 1140 | > 300 | 150 ± 33.1 | – | – | – | – | – | – | – | – | – | – | –
COc1cc(OC)cc(-c2cc3cnc(N)nc3nc2NC(=O)NC(C)(C)C)c1 [Compound 14, 1-(2-amino-6-(3,5-dimethoxyphenyl)pyrido[2,3-d]pyrimidin-7-yl)-3-tert-butylurea] | 340 | – | 19 ± 6.6 | > 256 | – | – | – | – | – | – | – | – | – | Ki (E. coli DdlB [1]; against ATP (50-500 μM), D-Ala 10 mM, competitive model): 31 ± 4 µM; mode of inhibition of DdlB (E. coli DdlB [1]; kinetic analysis at different inhibitor and ATP concentrations): ATP competitive inhibitors; fold greater DdlB inhibitory potency than corresponding diamine 13 (E. coli DdlB [1]; ratio of IC50 values, 14 against 13): 2.6 fold; Kd (E. coli DdlB [3]): 10 µM; standard enthalpy of binding ([drawing 4]) (E. coli DdlB [3]): -4 kcal/mol; entropy contribution of binding ([drawing 6]) (E. coli DdlB [3]; [6]): 3 kcal/mol; standard Gibbs free energy of binding ([drawing 5]) (E. coli DdlB [3]; [6]): -7 kcal/mol
CC(C)(C)NC(=O)Nc1nc2nc(N)ncc2cc1-c1cc(C(F)(F)F)cc(C(F)(F)F)c1 [Compound 19, 1-(2-amino-6-(3,5-bis(trifluoromethyl)phenyl)pyrido[2,3-d]pyrimidin-7-yl)-3-tert-butylurea] | 260 | – | – | – | > 256 | >256 | > 256 | 64 µg/mL (≈ 135 µM) | weak antibacterial activity | > 256 | >256 | > 256 | >256 | –
CC(C)(C)NC(=O)Nc1nc2nc(N)ncc2cc1-c1cc(Cl)cc(Cl)c1 [Compound 23, 1-(2-amino-6-(3,5-dichlorophenyl)pyrido[2,3-d]pyrimidin-7-yl)-3-tert-butylurea] | 383 | 179 to 182 | – | – | > 256 | >256 | > 256 | 16 µg/mL (≈ 39.5 µM) | weak antibacterial activity | > 256 | 32 (≈ 79 µM) | > 256 | >256 | –
Nc1ncc2cc(-c3c(F)cccc3F)c(N)nc2n1 [Compound 24, 6-(2,6-difluorophenyl)pyrido[2,3-d]pyrimidine-2,7-diamine] | 1110 | > 300 | 103 ± 7.8 | – | 64 (≈ 234 µM) | 16 (≈ 58.6 µM) | 16 (≈ 58.6 µM) | 8 µg/mL (≈ 29.3 µM) | – | 64 (≈ 234 µM) | 8 (≈ 29.3 µM) | – | 16 (≈ 58.6 µM) | MIC 1411 (E. coli 1411; without PMBN): 64 µg/mL (≈ 234 µM); MIC (E. coli AB734; AB734, without PMBN, read-out: MIC AB734): 64 µg/mL (≈ 234 µM); MIC AB734 (E. coli AB734; without PMBN): 64 µg/mL (≈ 234 µM)
CC(C)(C)NC(=O)Nc1nc2nc(N)ncc2cc1-c1c(Cl)cccc1Cl [Compound 27, 1-(2-amino-6-(2,6-dichlorophenyl)pyrido[2,3-d]pyrimidin-7-yl)-3-tert-butylurea] | 655 | – | 16.7 ± 6.5 | > 256 | – | – | – | – | – | – | – | – | – | –
CC(C)(C)NC(=O)Nc1nc2nc(N)ncc2cc1-c1c(Br)cccc1Br [Compound 34, 1-(2-amino-6-(2,6-dibromophenyl)pyrido[2,3-d]pyrimidin-7-yl)-3-tert-butylurea] | 583 | – | – | – | > 256 | 32 (≈ 64.8 µM) | 4 (≈ 8.09 µM) | 0,5 μg/ml | weak antibacterial activity | > 256 | 4 (≈ 8.09 µM) | > 256 | 32 (≈ 64.8 µM) | –
Nc1ncc2cc(-c3ccc4c(c3)OCO4)c(N)nc2n1 [Compound 35, 6-(benzo[d][1,3]dioxol-5-yl)pyrido[2,3-d]pyrimidine-2,7-diamine] | 1110 | > 300 | 104 ± 36.2 | > 256 | – | – | – | – | – | – | – | – | – | –
